According to patent publication US20230365537A1, “POLO LIKE KINASE 4 INHIBITORS” (ORIC Pharmaceuticals, Inc., priority 2021, published 2023):

Assays:
human recombinant PLK4 = human recombinant PLK4 (Homo sapiens (Human), UniProt O00444); experiment: PLK4 Biochemical Assay (ADP-Glo); conditions: 0.5 nM PLK4, 8.0 µM ATP, 4.7 µM MBP, 6 hours at RT
In short: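 Luminescent ADP-Glo detection quantified ADP production, with ATP depletion for 40 min and detection for 30 min at room temperature. Compound and PLK4 (1.0 nM stock addition) were preincubated 15 min in HEPES pH 7.5 buffer containing MgCl2, EGTA, DTT, Brij-35 and BSA. IC50 values were obtained by four-parameter nonlinear regression.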

[1] = biological target: human recombinant Aurora B (Homo sapiens (Human), UniProt Q96GD4); experiment: Aurora B Kinase Biochemical Assay (ADP-Glo); conditions: ratio of Aurora B IC50 to PLK4 IC50 (selectivity)
In short: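 IC50 derived by four-parameter nonlinear fit of ADP-Glo luminescence (ADP produced). Compound was preincubated 15 min at RT with 20 nM recombinant human Aurora B, in 50 mM HEPES pH 7.5, 10 mM MgCl2, 1 mM EGTA, 1 mM DTT, 0.01% Brij-35/BSA.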

CHP-134 cells = experiment: CHP134 CellTiter-Glo (CTG) Assay; assay type: cell-based; conditions: Homo sapiens, CHP-134, 120 h, 5 days, viable cells by CellTiter-Glo
In short: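 Nine-point 1:3 dilution series, diluted into growth media, added in quadruplicate to CHP-134 cells plated 16 h earlier at 200 cells/well.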

[2] = biological target: human recombinant Aurora A (Homo sapiens (Human), UniProt O14965); experiment: Aurora A Kinase Biochemical Assay (ADP-Glo); conditions: ratio of Aurora A IC50 to PLK4 IC50 (selectivity)
Chain of human recombinant Aurora A (O14965 whole entry): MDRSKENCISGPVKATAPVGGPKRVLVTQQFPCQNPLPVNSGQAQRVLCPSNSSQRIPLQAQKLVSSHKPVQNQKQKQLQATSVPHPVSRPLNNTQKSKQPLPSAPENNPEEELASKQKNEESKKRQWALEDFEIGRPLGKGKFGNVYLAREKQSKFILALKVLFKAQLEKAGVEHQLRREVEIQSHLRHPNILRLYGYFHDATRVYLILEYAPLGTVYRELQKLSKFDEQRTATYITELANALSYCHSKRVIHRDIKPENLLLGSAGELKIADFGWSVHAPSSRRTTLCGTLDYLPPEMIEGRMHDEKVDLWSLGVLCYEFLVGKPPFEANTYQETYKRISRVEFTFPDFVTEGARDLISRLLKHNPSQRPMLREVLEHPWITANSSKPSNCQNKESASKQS

Chain of human recombinant Aurora B (Q96GD4 whole entry): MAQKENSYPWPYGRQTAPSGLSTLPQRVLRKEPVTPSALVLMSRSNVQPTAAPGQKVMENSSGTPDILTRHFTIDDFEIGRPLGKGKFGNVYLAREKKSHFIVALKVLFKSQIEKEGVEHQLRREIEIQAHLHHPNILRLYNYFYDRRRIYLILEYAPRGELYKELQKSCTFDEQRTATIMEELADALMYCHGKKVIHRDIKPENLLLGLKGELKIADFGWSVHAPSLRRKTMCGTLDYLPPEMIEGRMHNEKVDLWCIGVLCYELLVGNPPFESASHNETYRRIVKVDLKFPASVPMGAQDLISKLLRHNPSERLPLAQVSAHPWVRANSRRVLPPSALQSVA
Chain of human recombinant PLK4 (O00444 whole entry): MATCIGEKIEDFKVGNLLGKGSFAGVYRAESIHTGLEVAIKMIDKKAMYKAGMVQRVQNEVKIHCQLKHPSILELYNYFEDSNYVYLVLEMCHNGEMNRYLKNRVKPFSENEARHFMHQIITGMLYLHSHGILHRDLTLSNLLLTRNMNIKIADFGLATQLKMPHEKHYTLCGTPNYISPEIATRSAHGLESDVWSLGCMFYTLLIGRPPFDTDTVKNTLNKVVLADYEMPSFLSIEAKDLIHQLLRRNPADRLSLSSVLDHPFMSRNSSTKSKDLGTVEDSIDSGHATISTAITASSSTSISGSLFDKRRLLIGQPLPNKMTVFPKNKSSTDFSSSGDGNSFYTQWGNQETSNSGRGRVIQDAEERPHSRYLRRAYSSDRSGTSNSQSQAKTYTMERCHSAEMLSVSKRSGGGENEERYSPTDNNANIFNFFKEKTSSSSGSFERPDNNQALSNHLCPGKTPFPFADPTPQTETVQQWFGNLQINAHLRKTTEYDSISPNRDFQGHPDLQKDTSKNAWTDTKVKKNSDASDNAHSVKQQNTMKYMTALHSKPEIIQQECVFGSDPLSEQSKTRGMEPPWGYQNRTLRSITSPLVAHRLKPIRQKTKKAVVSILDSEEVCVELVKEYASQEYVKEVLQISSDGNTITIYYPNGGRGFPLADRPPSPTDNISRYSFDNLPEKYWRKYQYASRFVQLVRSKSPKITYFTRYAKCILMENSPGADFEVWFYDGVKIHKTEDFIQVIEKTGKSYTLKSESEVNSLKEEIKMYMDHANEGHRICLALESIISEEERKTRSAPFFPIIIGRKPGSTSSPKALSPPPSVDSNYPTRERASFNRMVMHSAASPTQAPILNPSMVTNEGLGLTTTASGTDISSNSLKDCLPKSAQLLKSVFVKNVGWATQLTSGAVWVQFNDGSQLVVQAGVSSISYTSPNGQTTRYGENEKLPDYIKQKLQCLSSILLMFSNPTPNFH

IC50 (human recombinant PLK4) | [Aurora B IC50 (nM)]/[PLK4 IC50 (nM)] [1] | [Aurora A IC50 (nM)]/[PLK4 IC50 (nM)] [2] | Structure (SMILES) | IC50 (CHP-134 cells)
2.68 nM | 321.4179 | 1031.3433 | CCOc1nc(S(C)(=O)=O)ccc1Nc1n[nH]c2cc([C@@H]3C[C@@]34C(=O)Nc3ccc(OC)cc34)ccc12 [Example 202, (1R,2S)-2-(3-{[2-ethoxy-6-(methanesulfonyl)pyridin-3-yl]amino}-1H-indazol-6-yl)-5′-methoxyspiro[cyclopropane-1,3′-indol]-2′(1′H)-one] | 422 nM
1.04 nM | 333.7812 | 2922.2649 | CCOc1cc(C(=O)N(C)C)cnc1Nc1n[nH]c2cc([C@@H]3C[C@@]34C(=O)Nc3ccc(OC)cc34)ccc12 [Example 203, 5-ethoxy-6-({6-[(1R,2S)-5′-methoxy-2′-oxo-1’,2′-dihydrospiro[cyclopropane-1,3′-indol]-2-yl]-1H-indazol-3-yl}amino)-N,N-dimethylpyridine-3-carboxamide] | 324 nM
0.81 nM | 222.8395 | 342.9630 | COc1ccc2c(c1)[C@]1(C[C@H]1c1ccc3c(Nc4ncc(S(=O)(=O)N(C)C)cc4OC)n[nH]c3c1)C(=O)N2 [Example 204, 5-methoxy-6-({6-[(1R,2S)-5′-methoxy-2′-oxo-1’,2′-dihydrospiro[cyclopropane-1,3′-indol]-2-yl]-1H-indazol-3-yl}amino)-N,N-dimethylpyridine-3-sulfonamide] | 122 nM
1.64 nM | 235.7491 | 737.5152 | COc1ccc2c(c1)[C@]1(C[C@H]1c1ccc3c(Nc4ccc(P(C)(C)=O)nc4OC)n[nH]c3c1)C(=O)N2 [Example 205, (1R,2S)-2-(3-{[6-(dimethylphosphoryl)-2-methoxypyridin-3-yl]amino}-1H-indazol-6-yl)-5′-methoxyspiro[cyclopropane-1,3′-indol]-2′(1′H)-one] | 3440 nM
0.897 nM | 2471 | 7904 | CCOc1cc(S(C)(=O)=O)cnc1Nc1n[nH]c2cc([C@@H]3C[C@@]34C(=O)Nc3ccc(OC)cc34)ccc12 [Example 208, (1R,2S)-2-(3-{[3-ethoxy-5-(methanesulfonyl)pyridin-2-yl]amino}-1H-indazol-6-yl)-5′-methoxyspiro[cyclopropano-1,3′-indol]-2′(1′H)-one] | 402 nM
1.54 nM | 254.6519 | 273.2595 | CCS(=O)(=O)c1ccc(Nc2n[nH]c3cc([C@@H]4C[C@@]45C(=O)Nc4ccc(OC)cc45)ccc23)c(OC)n1 [Example 209, (1R,2S)-2-(3-{[6-(ethanesulfonyl)-2-methoxypyridin-3-yl]amino}-1H-indazol-6-yl)-5′-methoxyspiro[cyclopropane-1,3′-indol]-2′(1′H)-one] | 606 nM
1.35 nM | 316.5430 | 462.3887 | CNS(=O)(=O)c1cc(OC)c(Nc2n[nH]c3cc([C@@H]4C[C@@]45C(=O)Nc4ccc(OC)cc45)ccc23)cc1C [Example 210, 5-methoxy-4-({6-[(1R,2S)-5′-methoxy-2′-oxo-1′,2′-dihydrospiro[cyclopropane-1,3′-indol]-2-yl]-1H-indazol-3-yl}amino)-N,2-dimethylbenzene-1-sulfonamide] | 65.5 nM
1.58 nM | 280 | 353.1230 | COc1ccc2c(c1)[C@]1(C[C@H]1c1ccc3c(Nc4cc(OC)c(S(N)(=O)=O)cc4OC)n[nH]c3c1)C(=O)N2 [Example 212, 2,5-Dimethoxy-4-({6-[(1R,2S)-5′-methoxy-2′-oxo-l′,2′-dihydrospiro[cyclopropane-1,3′-indol]-2-yl]-1H-indazol-3-yl}amino)benzene-1-sulfonamide] | 161 nM
2.13 nM | 225.3871 | 92.2102 | COc1ccc2c(c1)[C@]1(C[C@H]1c1ccc3c(Nc4nc(N(C)C)nc5c4CCC5)n[nH]c3c1)C(=O)N2 [Example 213, (1R,2S)-2-(3-{[2-(dimethylamino)-6,7-dihydro-5H-cyclopenta[d]pyrimidin-4-yl]amino}-1H-indazol-6-yl)-5′-methoxyspiro[cyclopropane-1,3′-indol]-2′(1′H)-one] | 190 nM
1.01 nM | 59.0999 | 953 | CCOc1nc(C(=O)N(C)C)ccc1Nc1n[nH]c2cc([C@@H]3C[C@@]34C(=O)Nc3ccc(OC)cc34)ccc12 [Example 214, 6-ethoxy-5-({6-[(1R,2S)-5′-methoxy-2′-oxo-1′,2′-dihydrospiro[cyclopropane-1,3′-indol]-1-yl]-1H-indazol-3-yl}amino)-N,N-dimethylpyridine-2-carboxamide] | 32.2 nM

Continued, compound first:

Structure (SMILES) | IC50 (human recombinant PLK4) | [Aurora B IC50 (nM)]/[PLK4 IC50 (nM)] [1] | [Aurora A IC50 (nM)]/[PLK4 IC50 (nM)] [2] | IC50 (CHP-134 cells)
COc1ccc2c(c1)[C@]1(C[C@H]1c1ccc3c(Nc4nc(N5CC6(COC6)C5)ncc4OC)n[nH]c3c1)C(=O)N2 [Example 192, (1R,2S)-5′-methoxy-2-(3-{[5-methoxy-2-(2-oxa-6-azaspiro[3.3]heptan-6-yl)pyrimidin-4-yl]amino}-1H-indazol-6-yl)spiro[cyclopropane-1,3′-indol]-2′(1′H)-one] | 1.64 nM | 678.4625 | 2835.2654 | 1180 nM
COc1ccc2c(c1)[C@]1(C[C@H]1c1ccc3c(Nc4ncc(S(C)(=O)=O)cc4OC)n[nH]c3c1)C(=O)N2 [Example 193, (1R,2S)-2-(3-{[5-(methanesulfonyl)-3-methoxypyridin-2-yl]amino}-1H-indazol-6-yl)-5′-methoxyspiro[cyclopropane-1,3′-indol]-2′(1′H)-one] | 1.13 nM | 138.8889 | 1463.8448 | 390 nM
COc1ccc2c(c1)[C@]1(C[C@H]1c1ccc3c(Nc4ccc(C(=O)N(C)C(C)C)nc4OC)n[nH]c3c1)C(=O)N2 [Example 194, 6-methoxy-5-({6-[(1R,2S)-5′-methoxy-2′-oxo-1’,2′-dihydrospiro[cyclopropane-1,3′-indol]-2-yl]-1H-indazol-3-yl}amino)-N-methyl-N-(propan-2-yl)pyridine-2-carboxamide] | 0.965 nM | 103.7306 | 805.6995 | 126 nM
CCOc1cnc(SC)nc1Nc1n[nH]c2cc([C@@H]3C[C@@]34C(=O)Nc3ccc(OC)cc34)ccc12 [Example 195, (1R,2S)-2-(3-{[5-ethoxy-2-(methylsulfanyl)pyrimidin-4-yl]amino)-1H-indazol-6-yl)-5′-methoxyspiro[cyclopropane-1,3′-indol]-2′(1′H)-one] | 1.56 nM | 740.3846 | 3459.6154 | 160 nM
COc1ccc2c(c1)[C@]1(C[C@H]1c1ccc3c(Nc4nc(S(C)(=O)=O)ccc4OC)n[nH]c3c1)C(=O)N2 [Example 196, (1R,2S)-2-(3-{[6-(methanesulfonyl)-3-methoxypyridin-2-yl]amino}-1H-indazol-6-yl)-5′-methoxyspiro[cyclopropane-1,3′-indol]-2′(1′H)-one] | 3.32 nM | 100.8137 | 732.3689 | 1670 nM
COc1ccc2c(c1)[C@]1(C[C@H]1c1ccc3c(Nc4ncc(C(=O)N(C)C)cc4OC)n[nH]c3c1)C(=O)N2 [Example 197, 5-methoxy-6-({6-[(1R,2S)-5′-methoxy-2′-oxo-1′,2′-dihydrospiro[cyclopropane-1,3′-indol]-2-yl]-1H-indazol-3-yl}amino)-N,N-dimethylpyridine-3-carboxamide] | 1.08 nM | 73.8197 | 1243.4944 | 1080 nM
COc1ccc2c(c1)[C@]1(C[C@H]1c1ccc3c(Nc4cc(C(=O)N(C)C)ncc4OC)n[nH]c3c1)C(=O)N2 [Example 198, 5-methoxy-4-({6-[(1R,2S)-5′-methoxy-2′-oxo-1′,2′-dibydrospiro[cyclopropane-1,3′-indol]-2-yl]-1H-indazol-3-yl}amino)-N,N-dimethylpyridine-2-carboxamide] | 8.69 nM | 5752.4160 | 5752.4160 | 10000 nM
COc1ccc2c(c1)[C@]1(C[C@H]1c1ccc3c(Nc4ccc(C(=O)N5CCOCC5)cc4OC)n[nH]c3c1)C(=O)N2 [Example 199, (1R,2S)-5′-methoxy-2-{3-[2-methoxy-4-(morpholine-4-carbonyl)anilino]-1H-indazol-6-yl}spiro[cyclopropane-1,3′-indol]-2′(1′H)-one] | 0.716 nM | 57.7095 | 439.9441 | 108 nM
